Laboratory results reported in patent publication US7781591B2, “Substituted 3-cyanopyridines as protein kinase inhibitors” (Wyeth LLC, priority 2006, dated 2010).

Target: T1, human PKCθ full length enzyme (Homo sapiens, UniProt Q04759)
T1 construct: human PKCθ full length enzyme (Panvera Cat# P2996); purchased Panvera P2996
Experiment: PKCθ IMAP assay (fluorescence polarization)
Format: biochemical
Settings: human PKCθ full length enzyme, IMAP; average value; read-out: IC50 PKCθ IMAP

T1 sequence (Q04759 whole entry): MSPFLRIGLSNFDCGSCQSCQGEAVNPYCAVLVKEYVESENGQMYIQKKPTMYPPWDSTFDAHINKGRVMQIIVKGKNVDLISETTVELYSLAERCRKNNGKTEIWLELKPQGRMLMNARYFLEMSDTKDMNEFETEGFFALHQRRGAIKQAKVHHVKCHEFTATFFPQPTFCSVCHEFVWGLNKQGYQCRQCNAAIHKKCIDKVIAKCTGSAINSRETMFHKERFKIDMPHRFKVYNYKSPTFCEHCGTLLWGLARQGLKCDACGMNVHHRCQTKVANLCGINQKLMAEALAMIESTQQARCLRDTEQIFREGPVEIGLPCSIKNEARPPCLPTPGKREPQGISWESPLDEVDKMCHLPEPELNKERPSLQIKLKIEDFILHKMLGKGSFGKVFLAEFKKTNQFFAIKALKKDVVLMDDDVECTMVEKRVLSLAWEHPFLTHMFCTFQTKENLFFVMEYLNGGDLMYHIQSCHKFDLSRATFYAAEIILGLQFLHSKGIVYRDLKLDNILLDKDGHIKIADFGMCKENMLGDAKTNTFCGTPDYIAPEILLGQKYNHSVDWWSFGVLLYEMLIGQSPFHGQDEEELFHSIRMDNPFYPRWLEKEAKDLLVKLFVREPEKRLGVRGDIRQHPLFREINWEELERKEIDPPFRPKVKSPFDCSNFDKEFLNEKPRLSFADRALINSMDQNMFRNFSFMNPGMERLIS

| IC50 [nM] | SMILES |
| --- | --- |
| 9 | Cc1c(Nc2c(C#N)cncc2-c2ccc(OCCNCc3ccccn3)cc2)ccc2[nH]ccc12 [Compound 432, 4-[(4-methyl-1H-indol-5-yl)amino]-5-(4-{2-[(pyridin-2-ylmethyl)amino]ethoxy}phenyl)nicotinonitrile] |
| 10 | Cc1c(Nc2c(C#N)cncc2-c2ccc(OCCNCc3cccnc3)cc2)ccc2[nH]ccc12 [Compound 433, 4-[(4-methyl-1H-indol-5-yl)amino]-5-(4-{2-[(pyridin-3-ylmethyl)amino]ethoxy}phenyl)nicotinonitrile] |
| 14 | Cc1c(Nc2c(C#N)cncc2-c2ccc(OCCNCc3ccncc3)cc2)ccc2[nH]ccc12 [Compound 434, 4-[(4-methyl-1H-indol-5-yl)amino]-5-(4-{2-[(pyridin-4-ylmethyl)amino]ethoxy}phenyl)nicotinonitrile] |
| 49 | Cc1c(Nc2c(C#N)cncc2-c2ccc(OCCN3CCC(c4ccccc4)CC3)cc2)ccc2[nH]ccc12 [Compound 435, 4-[(4-methyl-1H-indol-5-yl)amino]-5-{4-[2-(4-phenylpiperidin-1-yl)ethoxy]phenyl}nicotinonitrile] |
| 1 | Cc1c(Nc2c(C#N)cncc2-c2ccc(CN3CCC(N(C)C)CC3)o2)ccc2[nH]ccc12 [Compound 436, 5-(5-{[4-(dimethylamino)piperidin-1-yl]methyl}-2-furyl)-4-[(4-methyl-1H-indol-5-yl)amino]nicotinonitrile] |
| 2 | Cc1c(Nc2c(C#N)cncc2-c2ccc(CN3CCN(C(C)C)CC3)o2)ccc2[nH]ccc12 [Compound 437, 5-{5-[(4-isopropylpiperazin-1-yl)methyl]-2-furyl}-4-[(4-methyl-1H-indol-5-yl)amino]nicotinonitrile] |
| 4 | Cc1c(Nc2c(C#N)cncc2-c2cc3cc(OCCN4CCN(C)CC4)ccc3o2)ccc2[nH]ccc12 [Compound 438, 4-[(4-methyl-1H-indol-5-yl)amino]-5-{5-[2-(4-methylpiperazin-1-yl)ethoxy]-1-benzofuran-2-yl}nicotinonitrile] |
| 5850 | COc1ccc(-c2cncc(C#N)c2NCCN2CCN(C)CC2)cc1OC [Compound 439, 5-(3,4-dimethoxyphenyl)-4-{[2-(4-methylpiperazin-1-yl)ethyl]amino}nicotinonitrile] |
| 14300 | COc1ccc(-c2cncc(C#N)c2NCCCN2CCN(C)CC2)cc1OC [Compound 440, 5-(3,4-dimethoxyphenyl)-4-{[3-(4-methylpiperazin-1-yl)propyl]amino}nicotinonitrile] |
| 529 | COc1ccc(-c2cncc(C#N)c2NC[C@H]2CC[C@H](CN)CC2)cc1OC [Compound 441, 4-({[trans-4-(aminomethyl)cyclohexyl]methyl}amino)-5-(3,4-dimethoxyphenyl)nicotinonitrile] |
| 1770 | COc1ccc(-c2cncc(C#N)c2NC[C@H]2CC[C@H](N)CC2)cc1OC [Compound 442, 4-{[(trans-4-aminocyclohexyl)methyl]amino}-5-(3,4-dimethoxyphenyl)nicotinonitrile] |
| 2460 | COc1ccc(-c2cncc(C#N)c2NCCC2CCNCC2)cc1OC [Compound 444, 5-(3,4-dimethoxyphenyl)-4-[(2-piperidin-4-ylethyl)amino]nicotinonitrile] |
| 20400 | COc1ccc(-c2cncc(C#N)c2NCC2CCNCC2)cc1OC [Compound 445, 5-(3,4-dimethoxyphenyl)-4-[(piperidin-4-ylmethyl)amino]nicotinonitrile] |
| 4880 | COc1ccc(-c2cncc(C#N)c2N[C@H]2CC[C@@H](N)CC2)cc1OC [Compound 446, 4-[(cis-4-aminocyclohexyl)amino]-5-(3,4-dimethoxyphenyl)nicotinonitrile] |
| 1930 | COc1ccc(-c2cncc(C#N)c2NCCC2CCN(C)CC2)cc1OC [Compound 447, 5-(3,4-dimethoxyphenyl)-4-{[2-(1-methylpiperidin-4-yl)ethyl]amino}nicotinonitrile] |
| 14100 | COc1ccc(-c2cncc(C#N)c2NCC2CCN(C)CC2)cc1OC [Compound 448, 5-(3,4-dimethoxyphenyl)-4-{[(1-methylpiperidin-4-yl)methyl]amino}nicotinonitrile] |
| 5 | Cc1c(Nc2c(C#N)cncc2-c2ccc(CN3CCN(C)CC3)cc2)ccc2[nH]ccc12 [Compound 449, 4-[(4-methyl-1H-indol-5-yl)amino]-5-{4-[(4-methylpiperazin-1-yl)methyl]phenyl}nicotinonitrile] |
| 16 | Cc1c(Nc2c(C#N)cncc2-c2ccc(CN3CCCC3)cc2)ccc2[nH]ccc12 [Compound 450, 4-[(4-methyl-1H-indol-5-yl)amino]-5-[4-(pyrrolidin-1-ylmethyl)phenyl]nicotinonitrile] |
| 9 | Cc1c(Nc2c(C#N)cncc2-c2ccc(CN3CCOCC3)cc2)ccc2[nH]ccc12 [Compound 451, 4-[(4-methyl-1H-indol-5-yl)amino]-5-[4-(morpholin-4-ylmethyl)phenyl]nicotinonitrile] |
| 8 | Cc1c(Nc2c(C#N)cncc2-c2ccc(CN(C)C)cc2)ccc2[nH]ccc12 [Compound 452, 5-{4-[(dimethylamino)methyl]phenyl}-4-[(4-methyl-1H-indol-5-yl)amino]nicotinonitrile] |

| IC50 [nM] | SMILES |
| --- | --- |
| 60 | Cc1c(Nc2c(C#N)cncc2-c2ccnc(CN3CCOCC3)c2)ccc2[nH]ccc12 [Compound 453, 4-[(4-methyl-1H-indol-5-yl)amino]-2′-(morpholin-4-ylmethyl)-3,4′-bipyridine-5-carbonitrile] |
| 3 | Cc1c(Nc2c(C#N)cncc2-c2cccc(CN3CCN(C)CC3)c2)ccc2[nH]ccc12 [Compound 454, 4-[(4-methyl-1H-indol-5-yl)amino]-5-{3-[(4-methylpiperazin-1-yl)methyl]phenyl}nicotinonitrile] |
| 7 | Cc1c(Nc2c(C#N)cncc2-c2cccc(CN3CCCC3)c2)ccc2[nH]ccc12 [Compound 455, 4-[(4-methyl-1H-indol-5-yl)amino]-5-[3-(pyrrolidin-1-ylmethyl)phenyl]nicotinonitrile] |
| 23 | Cc1c(Nc2c(C#N)cncc2-c2cccc(CN3CCOCC3)c2)ccc2[nH]ccc12 [Compound 456, 4-[(4-methyl-1H-indol-5-yl)amino]-5-[3-(morpholin-4-ylmethyl)phenyl]nicotinonitrile] |
| 7 | Cc1c(Nc2c(C#N)cncc2-c2cccc(CN(C)C)c2)ccc2[nH]ccc12 [Compound 457, 5-{3-[(dimethylamino)methyl]phenyl}-4-[(4-methyl-1H-indol-5-yl)amino]nicotinonitrile] |
| 14 | N#Cc1cncc(-c2ccc(OC[C@H](N)Cc3ccccc3)cc2)c1Nc1cccc2[nH]ccc12 [Compound 458, 5-(4-{[(2R)-2-amino-3-phenylpropyl]oxy}phenyl)-4-(1H-indol-4-ylamino)nicotinonitrile] |
| 6 | Cc1c(Nc2c(C#N)cncc2-c2ccc(CN3CCN(C)CC3)cc2F)ccc2[nH]ccc12 [Compound 459, 5-{2-fluoro-4-[(4-methylpiperazin-1-yl)methyl]phenyl}-4-[(4-methyl-1H-indol-5-yl)amino]nicotinonitrile] |
| 1 | Cc1c(Nc2c(C#N)cncc2-c2cc3cc(CN4CCCCC4)ccc3o2)ccc2[nH]ccc12 [Compound 461, 4-[(4-methyl-1H-indol-5-yl)amino]-5-[5-(piperidin-1-ylmethyl)-1-benzofuran-2-yl]nicotinonitrile] |
| 0.2 | Cc1c(Nc2c(C#N)cncc2-c2cc3cc(CN4CCN(C)CC4)ccc3o2)ccc2[nH]ccc12 [Compound 462, 4-[(4-methyl-1H-indol-5-yl)amino]-5-{5-[(4-methylpiperazin-1-yl)methyl]-1-benzofuran-2-yl}nicotinonitrile] |
| 6 | Cc1c(Nc2c(C#N)cncc2-c2ccc(CN3CCN(C)CC3)s2)ccc2[nH]ccc12 [Compound 464, 4-[(4-methyl-1H-indol-5-yl)amino]-5-{5-[(4-methylpiperazin-1-yl)methyl]-2-thienyl}nicotinonitrile] |
| 1 | Cc1c(Nc2c(C#N)cncc2-c2cc3cc(C=O)ccc3o2)ccc2[nH]ccc12 [Compound 465, 5-(5-formyl-1-benzofuran-2-yl)-4-[(4-methyl-1H-indol-5-yl)amino]nicotinonitrile] |
| 17 | Cc1c(Nc2c(C#N)cncc2-c2oc3ccccc3c2C)ccc2[nH]ccc12 [Compound 466, 5-(3-methyl-1-benzofuran-2-yl)-4-[(4-methyl-1H-indol-5-yl)amino]nicotinonitrile] |
| 36 | Cc1c(Nc2c(C#N)cncc2-c2ccncc2)ccc2[nH]ccc12 [Compound 467, 4-[(4-methyl-1H-indol-5-yl)amino]-3,4′-bipyridine-5-carbonitrile] |
| 4 | Cc1c(Nc2c(C#N)cncc2-c2ccc(CN3CCN(C)CC3)o2)ccc2[nH]ccc12 [Compound 468, 4-[(4-methyl-1H-indol-5-yl)amino]-5-{5-[(4-methylpiperazin-1-yl)methyl]-2-furyl}nicotinonitrile] |
| 31 | Cc1c(Nc2c(C#N)cncc2-c2ccnc(Cl)c2)ccc2[nH]ccc12 [Compound 469, 2′-chloro-4-[(4-methyl-1H-indol-5-yl)amino]-3,4′-bipyridine-5-carbonitrile] |
| 107 | Cc1c(Nc2c(C#N)cncc2-c2ccc(OCCN3CCN(C)CC3)cc2Cl)ccc2[nH]ccc12 [Compound 470, 5-{2-chloro-4-[2-(4-methylpiperazin-1-yl)ethoxy]phenyl}-4-[(4-methyl-1H-indol-5-yl)amino]nicotinonitrile] |
| 156 | Cc1c(Nc2c(C#N)cncc2-c2cccnc2Cl)ccc2[nH]ccc12 [Compound 471, 2′-chloro-4-[(4-methyl-1H-indol-5-yl)amino]-3,3′-bipyridine-5-carbonitrile] |
| 19 | Cc1c(Nc2c(C#N)cncc2-c2ccc(OCCCN3CCN(C)CC3)cc2)ccc2[nH]ccc12 [Compound 472, 4-[(4-methyl-1H-indol-5-yl)amino]-5-{4-[3-(4-methylpiperazin-1-yl)propoxy]phenyl}nicotinonitrile] |
| 24 | Cc1c(Nc2c(C#N)cncc2-c2ccc(OCCCN3CCOCC3)cc2)ccc2[nH]ccc12 [Compound 473, 4-[(4-methyl-1H-indol-5-yl)amino]-5-[4-(3-morpholin-4-ylpropoxy)phenyl]nicotinonitrile] |
